Reference: patent publication US5731286A, “Cyclic neurokinin A antagonists” (Merrell Pharmaceuticals, Inc., priority 1997, dated 1998)

System: rat urinary bladder
Test: In situ rat urinary bladder preparation, NKA-induced bladder contraction
Format: in vivo
Description: FIG. 6. […] Continuous tracing shown for each animal.
Rats, (female Sprague-Dawley, 150-200 g) were anesthetized with ketamine HCl (100 mg/kg i.p.) supplemented with urethane (1.2 g/kg i.p.). […] A needle was inserted into the apex of the bladder dome and saline was perfused through the bladder at a rate of 100 μl per minute. Bladder outflow was collected via a polyethylene cannula inserted into the urethra. Bladder contractions were monitored through a flow pressure transducer connected in series with the perfusion system. Test compounds were applied onto the bladder dome in 40-100 μl of saline or saline containing a minimum of DMSO. […] Antagonist was similarly applied onto the bladder 5 min before a repeated application of NKA. […] Amplitude (force) of contraction and 1-min time intervals were recorded continuously for each animal.

Q: Which results are given for neurokinin A [NKA]?
A: Effect on bladder contraction when applied onto the dome of the exposed bladder (anesthetized rats, 10 μg topical): sustained tonic contraction and an increase in frequency; Threshold concentration for contraction (applied onto bladder dome, anesthetized rats): approximately 10 μg; Tachyphylaxis on repeated application (repeated application of 10 μg): did not result in any tachyphylaxis
